According to patent US20090320869A1, “METHODS FOR PREVENTING REVERSION OF RELAXED KERATINOUS FIBERS AND FOR RELAXING KERATINOUS FIBERS” (L'Oreal, S.A.,, priority 2003, published 2009):

What was measured:
Design in all cases: species or system human
[1] = Percent straightening / reversion of hair relaxed with various concentrations of sodium hydroxide, D-xylose post-treatment and heat (Example 2); settings: for % Reversion / % Straightening: flat iron 1 min 130° C., 24 h at 90% RH
Protocol: [formula] The percent reversion (“% reversion”)=100%−(% straightening) Virgin African-American (kinky) hair was processed with different concentrations of sodium hydroxide for 20 min at room temperature: 1.0%, 1.5%, 2.0%, and 2.5% NaOH, respectively. Next, the sodium hydroxide solution was washed off, the swatch was profusely rinsed with tepid water, and the treatment solution was applied for 5 min at room temperature. The treatment solutions included water and 5% D-xylose. Next, the swatch was briefly rinsed to remove an excess of the treatment solution from the hair surface, blow-dried, and heat was applied in the form of a flat iron for 1 min (130° C.). The heat-treated swatch was rinsed with tepid water, air-dried at 50% RH (25° C.), and maintained for 24 h at 90% RH (25° C.). The percent hair straightening was determined as in Example 1.

[2] = Percent straightening / reversion of hair relaxed with 2.5% sodium hydroxide, D-xylose post-treatment and heat (Example 1); settings: for % Reversion / % Straightening: flat iron five strokes 130° C., 24 at 90% RH (25° C.)
Protocol: Virgin African-American (kinky) hair was processed and 2.5% sodium hydroxide for 20 min at room temperature. Next, the sodium hydroxide solution was washed off, the swatch was profusely rinsed with tepid water, and the treatment solution was applied for 5 min at room temperature. The treatment solutions included: water; 1% D-xylose; and 5% D-xylose. Next, the swatch was briefly rinsed to remove an excess of the treatment solution from the hair surface, blow-dried, and heat was applied in the form of five strokes with a flat iron (130° C.). The heat-treated swatch was rinsed with tepid water, air-dried at 50% RH (25° C.), and maintained for 24 at 90% RH (25° C.). The percent hair straightening (“% straightening”) was determined as follows: [formula] The percent reversion (“% reversion”)=100%−(% straightening)

[3] = Effect of D-xylose on hair relaxed with a commercial thioglycolate relaxer (Example 5); settings: for % Reversion / % Straightening: flat iron 30 sec 175° C., 1 h at 100% RH
Protocol: [formula] The percent reversion (“% reversion”)=100%−(% straightening) Virgin African-American (kinky) hair was processed with a commercial thioglycolate cream relaxer as follows. The thioglycolate cream relaxer was applied to a swatch of kinky hair for 15 min at room temperature (reduced hair). Next, the thioglycolate cream was washed off, the swatch was profusely rinsed with tepid water, and a hydrogen peroxide cream was applied for 5 min. The treatment solutions included: water and 5% D-xylose. The treatment solutions were applied either between the rinsing of the thioglycolate cream relaxer and the application of the hydrogen peroxide cream, or after the application of the hydrogen peroxide cream, respectively. The treatment solutions was applied for 5 min at room temperature. Next, the swatch was briefly rinsed to remove an excess of the treatment solution from the hair surface, blow-dried, and heat was applied in the form of a flat iron for 30 sec (175° C.). The heat-treated swatch was rinsed with tepid water, air-dried at 50% RH (25° C.), and maintained for 1 h at 100% RH (25° C.). The percent hair straightening was determined as in Example 1.

[4] = Effect of pH of D-xylose solutions on hair relaxed with 2.0% sodium hydroxide (Example 3); settings: for % Reversion / % Straightening: 2.0% NaOH + 5% D-Xylose, flat iron 1 min 130° C., 24 h at 90% RH
Protocol: [formula] The percent reversion (“% reversion”)=100%−(% straightening) Virgin African-American (kinky) hair was processed with 2.0% sodium hydroxide for 20 min at room. Next, the sodium hydroxide solution was washed off, the swatch was profusely rinsed with tepid water, and the treatment solution was applied for 10 min at 45° C. The treatment solutions included: buffer solution, pH 2.0; buffer solution, pH 6.0; buffer solution, pH 10.0; 5% D-xylose, pH 2.0; 5% D-xylose, pH 6.5; and 5% D-xylose, pH 10. The solutions were buffered using phosphoric acid and sodium hydroxide. Next, the swatch was briefly rinsed to remove an excess of the treatment solution from the hair surface, blow-dried, and heat was applied in the form of a flat iron for 1 min. (130° C.). The heat-treated swatch was rinsed with tepid water, air-dried at 50% RH (25° C.), and maintained for 24 h at 90% RH (25° C.). The percent hair straightening was determined as in Example 1.

[5] = Effect of D-xylose concentration on hair relaxed with a commercial alkali relaxer (Example 4); settings: for % Reversion / % Straightening: flat iron 1 min 175° C., 1 h at 100% RH
Protocol: [formula] The percent reversion (“% reversion”)=100%−(% straightening) Virgin African-American (kinky) hair was processed with an alkali relaxer as follows. The commercial cream relaxer was applied to a swatch of hair for 10 min at room temperature. Next, the cream was washed off, the swatch was profusely rinsed with tepid water, and the treatment solution was applied for 5 min. The treatment solutions included water; 1% D-xylose; 3% D-xylose; and 5% D-xylose. Next, the swatch was briefly rinsed to remove an excess of the treatment solution from the hair surface, blow-dried, and heat was applied in the form of a flat iron for 1 min (175° C.). The heat-treated swatch was rinsed with tepid water, air-dried at 50% RH (25° C.), and maintained for 1 h at 100% RH (25° C.). The percent hair straightening was determined as in Example 1.

[6] = 2.5% NaOH 20 min + 1% D-Xylose 5 min
[7] = 2.5% NaOH 20 min + 5% D-Xylose 5 min
[8] = thioglycolate reduced hair + 5% D-Xylose, then hydrogen peroxide
[9] = thioglycolate reduced hair + hydrogen peroxide, then 5% D-Xylose
[10] = commercial alkali cream relaxer 10 min + 1% D-Xylose 5 min
[11] = commercial alkali cream relaxer 10 min + 3% D-Xylose 5 min
[12] = commercial alkali cream relaxer 10 min + 5% D-Xylose 5 min

In the case of `O=C[C@H](O)[C@@H](O)[C@H](O)CO` [D-Xylose, D-xylose], the “% Reversion” value ([1]; 1.0% NaOH + 5% D-Xylose) is reported as 42.9%, the “% Straightening” value ([1]; 1.0% NaOH + 5% D-Xylose) is reported as 57.1% and the “% Reversion” value ([1]; 1.5% NaOH + 5% D-Xylose) is reported as 21.4%. For the same molecule, the “% Straightening” value ([1]; 1.5% NaOH + 5% D-Xylose) was 78.6%, the “% Reversion” value ([1]; 2.0% NaOH + 5% D-Xylose) was 0% and the “% Straightening” value ([1]; 2.0% NaOH + 5% D-Xylose) was 100%. For the same molecule, the “% Reversion” value ([1]; 2.5% NaOH + 5% D-Xylose) was 0%, the “% Straightening” value ([1]; 2.5% NaOH + 5% D-Xylose) was 100% and the “curl reversion in relaxed kinky hair (in words)” value ([1]; post-treatment with a D-xylose solution vs water, 1.0-2.5% NaOH) was “prevented curl reversion in the relaxed kinky hair better than post-treatment with water”. For the same molecule, the “% Reversion” value [2, 6] was 7.2%, the “% Straightening” value [2, 6] was 92.8% and the “% Reversion” value [2, 7] was 0%. The “% Straightening” value [2, 7] was 100%, the “curl reversion in relaxed kinky hair (in words)” value ([2]; post-treatment with a D-xylose solution, hair relaxed with 2.5% NaOH) was “prevented curl reversion” and the “reversion of relaxed hair (in words)” value ([3]; post-treatment with a D-xylose solution, thioglycolate hair relaxer) was “prevented reversion”. For the same molecule, the “% Reversion” value [3, 8] was 0.00%, the “% Straightening” value [3, 8] was 100% and the “% Reversion” value [3, 9] was 14.0%. The “% Straightening” value [3, 9] was 86.0%, the “% Reversion” value ([4]; pH 2.0, 10 min at 45° C.) was 20.0% and the “% Straightening” value ([4]; pH 2.0, 10 min at 45° C.) was 80.0%. The “% Reversion” value ([4]; pH 6.5, 10 min at 45° C.) was 10.0%, the “% Straightening” value ([4]; pH 6.5, 10 min at 45° C.) was 90.0% and the “% Reversion” value ([4]; pH 10.0, 10 min at 45° C.) was 0.00%. For the same molecule, the “% Straightening” value ([4]; pH 10.0, 10 min at 45° C.) was 100%, the “reversion of relaxed hair (in words)” value ([4]; post-treatment with a D-Xylose solution vs buffer solution at various pH values) was “prevented reversion of the relaxed hair better than post-treatment with a buffer solution” and the “% Reversion” value [5, 10] was 30.9%. The “% Straightening” value [5, 10] was 69.1%, the “% Reversion” value [5, 11] was 24.0% and the “% Straightening” value [5, 11] was 76.0%. The “% Reversion” value [5, 12] was 22.0%, the “% Straightening” value [5, 12] was 78.0% and the “reversion of relaxed hair (in words)” value ([5]; post-treatment with various concentrations of D-xylose vs water, commercial alkali relaxer) was “prevented reversion of the relaxed hair”.
